Results taken from patent publication US20240101546A1, “HETEROARYL-ACETYLENES, PHARMACEUTICAL COMPOSITIONS THEREOF, AND THEIR THERAPEUTIC APPLICATIONS” (Eubulus Biotherapeutics Inc., priority 2020, published 2024).

Each compound was assayed on lung cancer cell line NCI-H82 (assay: Cell proliferation assay, NCI-H82 (CELL-TITER GLO)). Settings: Homo sapiens, NCI-H82, 72 h, NCI-H82 cells, 72 h incubation, cell viability by CELL-TITER GLO, top concentration 1 μM; read-out: EC50, Inhibition of NCl-H82 Cell Proliferation.
Assay type: cell-based
In short: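 NCI-H82 cells, 1,000 per well in RPMI1640, were treated after overnight plating with a 3-fold dilution series from 1 μM. Viability read by CellTiter-Glo luminescence after 72 h. EC50 derived from the curves.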
`C#Cc1nc(NC(=O)N[C@@H](COC(=O)C(C)(C)C)c2ccc(-c3cccc4ncsc34)cc2)cs1` [Compound A202, (R)-2-(4-(Benzo[d]thiazol-7-yl)phenyl)-2-(3-(2-ethynylthiazol-4-yl)ureido)ethyl pivalate] was tested, and the EC50 was at most 200 nM.
Work on `C#Cc1nc(NC(=O)N[C@H](c2ccc(-c3cccc4ncsc34)cc2)C(C)(C)O)cs1` [Compound A203, (R)-1-(1-(4-(Benzo[d]thiazol-7-yl)phenyl)-2-hydroxy-2-methylpropyl)-3-(2-ethynylthiazol-4-yl)urea] yielded an EC50 of at most 200 nM.
`C#Cc1nc(NC(=O)N[C@H](c2ccc(-c3cccc4ncsc34)cc2)C(C)O)cs1` (stereo partly drawn) [Compound A204, 1-((1R)-1-(4-(Benzo[d]thiazol-7-yl)phenyl)-2-hydroxypropyl)-3-(2-ethynyl-thiazol-4-yl)urea] was tested, and the EC50 was at most 200 nM.
`C#Cc1nc(NC(=O)N(CCC#N)Cc2ccc(-c3cccc4ncsc34)cc2)cs1` [Compound A205, 1-(4-(Benzo[d]thiazol-7-yl)benzyl)-1-(2-cyanoethyl)-3-(2-ethynylthiazol-4-yl)urea] was tested, and the EC50 was at most 200 nM.
`C#Cc1nc(NC(=O)N(CCO)Cc2ccc(-c3cccc4ncsc34)cc2)cs1` [Compound A206, 1-(4-(Benzo[d]thiazol-7-yl)benzyl)-3-(2-ethynylthiazol-4-yl)-1-(2-hydroxyethyl)-urea] gave an EC50 of at most 200 nM.
Work on `C#Cc1nc(NC(=O)N(CCS(C)(=O)=O)Cc2ccc(-c3cccc4ncsc34)cc2)cs1` [Compound A207, 1-(4-(Benzo[d]thiazol-7-yl)benzyl)-3-(2-ethynylthiazol-4-yl)-1-(2-(methyl-sulfonyl)ethyl)urea] yielded an EC50 of at most 200 nM.
`C#Cc1nc(NC(=O)N(CC#N)Cc2ccc(-c3cccc4ncsc34)cc2)cs1` [Compound A208, 1-(4-(Benzo[d]thiazol-7-yl)benzyl)-1-(cyanomethyl)-3-(2-ethynylthiazol-4-yl)urea] was tested, and the EC50 was at most 200 nM.
Work on `C#Cc1nc(NC(=O)NC(C(N)=O)c2ccc(-c3cccc4ncsc34)cc2)cs1` (stereo not drawn) [Compound A209, 2-(4-(Benzo[d]thiazol-7-yl)phenyl)-2-(3-(2-ethynylthiazol-4-yl)ureido)acetamide] yielded an EC50 of at most 200 nM.
Compound `C#Cc1nc(NC(=O)N[C@@H](C(N)=O)c2ccc(-c3cccc4ncsc34)cc2)cs1` [Compound A210, (R)-2-(4-(Benzo[d]thiazol-7-yl)phenyl)-2-(3-(2-ethynylthiazol-4-yl)ureido)-acetamide] has an EC50 of at most 200 nM.
With `C#Cc1nc(NC(=O)N[C@H](C(N)=O)c2ccc(-c3cccc4ncsc34)cc2)cs1` [Compound A211, (S)-2-(4-(Benzo[d]thiazol-7-yl)phenyl)-2-(3-(2-ethynylthiazol-4-yl)ureido)-acetamide] the EC50 was at most 200 nM.
In the case of `C#Cc1nc(NC(=O)N[C@@H](C(N)=O)c2ccc(-c3cccc(C4(C#N)CC4)c3)cc2)cs1` [Compound A212, (R)-2-(3′-(1-Cyanocyclopropyl)-[1,1′-biphenyl]-4-yl)-2-(3-(2-ethynylthiazol-4-yl)ureido)acetamide], the EC50 is reported as at most 200 nM.
For `C#Cc1nc(NC(=O)N[C@@H](C(=O)NC)c2ccc(-c3cccc4nc[nH]c(=O)c34)cc2)cs1` [Compound A213, (R)-2-(3-(2-Ethynylthiazol-4-yl)ureido)-N-methyl-2-(4-(4-oxo-3,4-dihydro-quinazolin-5-yl)phenyl)acetamide], the EC50 was at most 200 nM.
`C#Cc1nc(NC(=O)NC(C(=O)NC)c2ccc(-c3cccc4ncsc34)cc2)cs1` (stereo not drawn) [Compound A214, 2-(4-(Benzo[d]thiazol-7-yl)phenyl)-2-(3-(2-ethynylthiazol-4-yl)ureido)-N-methylacetamide] showed an EC50 of at most 200 nM.
`C#Cc1nc(NC(=O)N[C@@H](C(=O)NC)c2ccc(-c3cccc4ncsc34)cc2)cs1` [Compound A215, (R)-2-(4-(Benzo[d]thiazol-7-yl)phenyl)-2-(3-(2-ethynylthiazol-4-yl)ureido)-N-methylacetamide] gave an EC50 of at most 200 nM.
For `C#Cc1nc(NC(=O)N[C@H](C(=O)NC)c2ccc(-c3cccc4ncsc34)cc2)cs1` [Compound A216, (S)-2-(4-(Benzo[d]thiazol-7-yl)phenyl)-2-(3-(2-ethynylthiazol-4-yl)ureido)-N-methylacetamide], the EC50 was at most 200 nM.
Work on `C#Cc1nc(NC(=O)N[C@@H](C(=O)NC)c2ccc(-c3cccc(C4(C#N)CC4)c3)cc2)cs1` [Compound A217, (R)-2-(3′-(1-Cyanocyclopropyl)-[1,1′-biphenyl]-4-yl)-2-(3-(2-ethynylthiazol-4-yl)ureido)-N-methylacetamide] yielded an EC50 of at most 200 nM.
`C#Cc1nc(NC(=O)N[C@@H](C(=O)NC)c2ccc(-c3cccc(C4(O)CC4)c3)cc2)cs1` [Compound A218, (R)-2-(3-(2-Ethynylthiazol-4-yl)ureido)-2-(3′-(1-hydroxycyclopropyl)-[1,1′-biphenyl]-4-yl)-N-methylacetamide] showed an EC50 of at most 200 nM.
Work on `C#Cc1nc(NC(=O)N[C@@H](C(=O)NC)c2ccc(-c3cccc(C(=O)CC)c3)cc2)cs1` [Compound A219, (R)-2-(3-(2-Ethynylthiazol-4-yl)ureido)-N-methyl-2-(3′-propionyl-[1,1′-biphenyl]-4-yl)acetamide] yielded an EC50 of at most 200 nM.
In the case of `C#Cc1nc(NC(=O)N[C@@H](C(=O)N(C)C)c2ccc(-c3cccc4ncsc34)cc2)cs1` [Compound A220, (R)-2-(4-(Benzo[d]thiazol-7-yl)phenyl)-2-(3-(2-ethynylthiazol-4-yl)ureido)-N,N-dimethylacetamide], the EC50 is reported as at most 200 nM.
`C#Cc1nc(NC(=O)N[C@@H](COC(N)=O)c2ccc(-c3cccc(C#N)c3)cc2)cs1` [Compound A221, (R)-2-(3′-Cyano-[1,1′-biphenyl]-4-yl)-2-(3-(2-ethynylthiazol-4-yl)ureido)ethyl carbamate] was tested, and the EC50 was at most 200 nM.
In the case of `C#Cc1nc(NC(=O)NC(COC(N)=O)c2ccc(-c3cccc(C4(C#N)CC4)c3)cc2)cs1` (stereo not drawn) [Compound A222], the EC50 is reported as at most 200 nM.
`C#Cc1nc(NC(=O)N[C@@H](COC(N)=O)c2ccc(-c3cccc4ncsc34)cc2)cs1` [Compound A223, (R)-2-(4-(Benzo[d]thiazol-7-yl)phenyl)-2-(3-(2-ethynylthiazol-4-yl)ureido)ethyl carbamate] showed an EC50 of at most 200 nM.
For `C#Cc1nc(NC(=O)N[C@@H](COC(=O)NC)c2ccc(-c3cccc4ncsc34)cc2)cs1` [Compound A224, (R)-2-(4-(Benzo[d]thiazol-7-yl)phenyl)-2-(3-(2-ethynylthiazol-4-yl)ureido)ethyl methylcarbamate], the EC50 was at most 200 nM.
`C#Cc1nc(NC(=O)N[C@@H](COC(N)=O)c2ccc(-c3cccc4nnsc34)cc2)cs1` [Compound A225, (R)-2-(4-(Benzo[d][1,2,3]thiadiazol-7-yl)phenyl)-2-(3-(2-ethynylthiazol-4-yl)-ureido)ethyl carbamate] gave an EC50 of at most 200 nM.
For `C#Cc1nc(NC(=O)N[C@@H](COC(N)=O)c2ccc(-c3cccc4nsnc34)cc2)cs1` [Compound A226, (R)-2-(4-(Benzo[c][1,2,5]thiadiazol-4-yl)phenyl)-2-(3-(2-ethynylthiazol-4-yl)-ureido)ethyl carbamate], the EC50 was at most 200 nM.
`C#Cc1nc(NC(=O)N[C@@H](COC(N)=O)c2ccc(-c3cccc4cccnc34)cc2)cs1` [Compound A227, (R)-2-(3-(2-Ethynylthiazol-4-yl)ureido)-2-(4-(quinolin-8-yl)phenyl)ethyl carbamate] was tested, and the EC50 was at most 200 nM.
Compound `C#Cc1nc(NC(=O)N[C@@H](COC(N)=O)c2ccc(-c3cccc4cnccc34)cc2)cs1` [Compound A229, (R)-2-(3-(2-Ethynylthiazol-4-yl)ureido)-2-(4-(isoquinolin-5-yl)phenyl)ethyl carbamate] has an EC50 of at most 200 nM.
